The values that follow come from patent US20240174641A1, “HETEROCYCLIC COMPOUNDS CAPABLE OF […]” (Boehringer Ingelheim International GmbH, priority 2022, published 2024).

The target in test [1] is STING (Canis lupus familiaris, UniProt A0A8I3MH52). Put plainly: Dog whole blood (dWB) assay, IFNb secretion by ELISA. The format is cell-based. Conditions: canine Interferon-beta (IFNb) ELISA, 4 h incubation at 37° C. As for the experimental part: For the detection of STING activation in physiological environment dog whole blood (dWB) was stimulated by the cyclic dinucleotide cGAMP or a test compound. Pathway activity was monitored by measuring the IFNb production.
Compounds were delivered as 10 mM DMSO solution, diluted and transferred by using an Echo acoustic dispenser to the 384 well assay plate (Greiner #781182), pre-filled with 10 μl 1×HBSS in each well (10×HBSS (+Ca/+Mg), #14065-049, Gibco). Typically, 8 concentrations were used with the highest concentration at 10 μM in the final assay volume followed by approximately 1:4 dilution steps. DMSO concentration was set to 0.1% in the final assay volume. The 384-well assay plate contained 20 test compounds and DMSO in control and cGAMP standard wells. The dog whole blood was collected as Na-Citrate blood (e.g., 3.8% in Monovettes from Sarstedt) and kept at 4° C. overnight until use in the assay. 80 μl of the whole blood samples were transferred to each well of the 384-well assay plates filled with compound/1×HBSS. Blood plates were kept at room temperature for 60 minutes and continuous shaking with 450 rpm, covered with the lid, but not sealed. A 10×cGAMP assay solution was diluted from a 2 mM stock solution in 1×HBSS immediately before use at room temperature. 10 μl of the 10×cGAMP/HBSS were added to the high control wells, whereas HBSS only was added to all compound and low control wells. After covering assay plates with the lid, blood plates were kept for a 4 h incubation at 37° C. in the incubator, without shaking. For the detection of IFNb in dog plasma the ELISA Kit for Canine Interferon Beta (Biotrend #SEA222Ca) was used. Whole blood assay plates were centrifuged at 1000 g for 10 minutes at 8° C. […] was transferred with a 96 well pipetting robotics from the 384 well whole blood plate to the corresponding 96 well ELISA plate, pre-filled with 60 μl assay diluent in each well. Plates were sealed with microplate seals and kept at 4° C. overnight again. ELISA plates were brought to room temperature, followed by a 1 h incubation at 37° C. in the incubator. Detection Reagent A working solution was prepared by diluting Detection Reagent A 1:100 in Assay Reagent A. Liquid was then removed from the 96 well ELISA plate to add 100 μL Detection Reagent A working solution to each well. ELISA plates were covered with the plate sealer and incubated for 1 hour at 37° C. in the incubator. The 1× Wash buffer was prepared by diluting the 30× Wash Buffer Concentrate in H2O. Detection Reagent B working solution was prepared by diluting Detection Reagent B 1:100 in Assay Reagent B. The ELISA plates were washed three times with 350 μl wash buffer and afterwards inverted and blotted against absorbent paper to remove any liquid. 100 μL of Detection Reagent B working solution was added to each well of the ELISA plates, which are then covered with the plate sealer and incubated for 30 minutes at 37° C. in the incubator. After incubation the ELISA assay plates were washed five times with 350 μl wash buffer and were again inverted and blotted against absorbent paper to remove any remaining liquid. 90 μL of TMB Substrate was added to each well of the ELISA plates, which were then covered with the plate sealer and incubated for 15 minutes at 37° C. in the incubator. The reaction was stopped by adding 50 μL stop solution and absorbance was measured at 450 nm immediately.
For data evaluation and calculation, % control calculation of each well was based on the mean of high (cGAMP stimulated control) and mean of low (unstimulated control) controls by using the following standard 4 parameter logistic regression formula:
[y=(a−d)/(1+(x/c)^b)+d] • a=low value, • d=high value, • x=conc M, • c=EC50 M, • b=slope. Dog Liver Microsome (dLM) Assay

The test system of test [2] is dog STING (dSTING). Nature of the test: Dog differential scanning fluorimetry (DSF) assay, thermal shift of dog STING protein. The test is classed as binding. To be noted: DSF (dDSF); 100 μM compound, 3 μM dog STING protein; Tm with ligand minus Tm of protein alone. The procedure, abridged: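 Dog STING residues 149–375, His-tag removed by TEV, tested at 3 μM with 100 μM compound, 5× SYPRO Orange and 2% DMSO in 20 mM Tris, 150 mM NaCl, pH 7.5. Heated 15–95 °C in 0.5 °C steps. Tm from Boltzmann fit, duplicates averaged; ΔTm relative to protein alone.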

Sequence of STING (A0A8I3MH52 1-374): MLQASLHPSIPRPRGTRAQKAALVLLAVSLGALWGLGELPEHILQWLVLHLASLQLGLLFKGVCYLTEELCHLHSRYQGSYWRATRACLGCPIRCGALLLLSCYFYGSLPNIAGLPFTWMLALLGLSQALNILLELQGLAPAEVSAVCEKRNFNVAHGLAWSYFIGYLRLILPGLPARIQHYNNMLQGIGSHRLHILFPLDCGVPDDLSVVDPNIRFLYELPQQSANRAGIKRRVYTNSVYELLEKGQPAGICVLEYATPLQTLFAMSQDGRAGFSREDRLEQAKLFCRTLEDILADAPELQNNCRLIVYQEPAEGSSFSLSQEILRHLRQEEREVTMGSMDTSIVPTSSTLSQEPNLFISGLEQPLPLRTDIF

As for `CC(=O)N1CCN(c2ccc(-n3nc(-c4c(F)cc(F)c5nn(C)cc45)c4cc(F)cc(C)c43)cn2)CC1` [Example 68], the response in test [1] was half-maximal at 106 nM (EC50). Also, in test [2], the “Delta TM” value is 28.5 °C.

For `Cc1cc(F)cc2c(-c3cccc4nn(C)c(F)c34)nn(-c3ccc(N4C[C@@H]5[C@H](C4)[C@H]5C(=O)O)nc3)c12` [Example 10, (1R,5S,6R)-3-(5-{3′,5-Difluoro-2′,7-dimethyl-1H,2′H-[3,4′-biindazol]-1-yl}pyridin-2-yl)-3-azabicyclo[3.1.0]hexane-6-carboxylic acid], the midpoint of the response in test [1], the EC50, lay at 350 nM. The “Delta TM” value in test [2] came to 33.1 °C.

`Cc1cccc2c(-c3cccc4nn(C)c(F)c34)nn(-c3ccc(N4CC5CCC4CC5C(=O)O)nc3)c12` (single isomer, unassigned) [Example 20-3, 2-(5-{3'-fluoro-2',7-dimethyl-1H,2'H-[3,4'-biindazol]-1-yl}pyridin-2-yl)-2-azabicyclo[2.2.2]octane-5-carboxylic acid]: in test [1], the EC50 is 195 nM. The “Delta TM” value in test [2] amounted to 35.9 °C.

In the case of `Cc1cc(F)cc2c(-c3ccc(F)c4nn(C)cc34)nn(-c3ccc(N4C[C@@H]5[C@H](C4)[C@H]5C(=O)O)nc3)c12` [Example 12, (1R,5S,6R)-3-(5-{5,7″-Difluoro-2″,7-dimethyl-1H,2″H-[3,4″-biindazol]-1-yl}pyridin-2-yl)-3-azabicyclo[3.1.0]hexane-6-carboxylic acid], in test [1], the 50% effective concentration (EC50) was found to be 609 nM. For the same compound, the “Delta TM” value in test [2] turned out to be 21.7 °C.

`Cc1cccc2c(-c3cccc4nn(C)c(F)c34)nn(-c3ccc(N4C[C@@H]5C[C@H]4C[C@H]5C(=O)O)nc3)c12` [Example 73-2, (1S,4R,5R)-2-(5-{3″-fluoro-2″,7-dimethyl-1H,2″H-[3,4″-biindazol]-1-yl}pyridin-2-yl)-2-azabicyclo[2.2.1]heptane-5-carboxylic acid] showed an EC50 in test [1] of 232 nM. In test [2], the “Delta TM” value is 33.3 °C.

In test [1], `Cc1c(F)ccc2c(-c3cccc4nn(C)c(F)c34)nn(-c3ccc(N4CCC(C(=O)O)CC4)nc3)c12` [Example 60, 1-(5-{3″,6-difluoro-2″,7-dimethyl-1H,2″H-[3,4″-biindazol]-1-yl}pyridin-2-yl)piperidine-4-carboxylic acid] had a concentration giving a half-maximal response (EC50) of 195 nM. The “Delta TM” value in test [2] worked out at 34.5 °C.

For `Cc1cccc2c(-c3ccc(F)c4nn(C)c(F)c34)nn(-c3ccc(N4CC[C@@H](CC(=O)O)C4)nc3)c12` [Example 54, 2-[(3S)-1-(5-{3″,7″-difluoro-2″,7-dimethyl-1H,2″H-[3,4″-biindazol]-1-yl}pyridin-2-yl)pyrrolidin-3-yl]acetic acid], the EC50 in test [1] turned out to be 261 nM. Moreover, the “Delta TM” value in test [2] was found to be 30.0 °C.

In turn, `Cc1cccc2c(-c3ccc(F)c4nn(C)c(F)c34)nn(-c3ccc(N4CCC(C(=O)O)CC4)nc3)c12` [Example 53, 1-(5-{3″,7″-difluoro-2″,7-dimethyl-1H,2″H-[3,4″-biindazol]-1-yl}pyridin-2-yl)piperidine-4-carboxylic acid] came in with a concentration giving a half-maximal response (EC50) in test [1] of 654 nM. Further, in test [2], the “Delta TM” value was found to be 33.0 °C.

Turning to `Cc1cccc2c(-c3c(F)cc(F)c4nn(C)cc34)nn(-c3ccc(N4CC5CCC4CC5C(=O)O)nc3)c12` (single isomer, unassigned) [Example 48-4], the EC50 in test [1] was 169 nM. The “Delta TM” value in test [2] was determined as 36.1 °C.

Compound `CC(=O)N1CCN(c2ccc(-n3nc(-c4cccc5nn(C)c(F)c45)c4ccc(F)c(C)c43)cn2)CC1` [Example 66, 1-[4-(5-{5″,6-difluoro-2″,7-dimethyl-1H,2″H-[3,4″-biindazol]-1-yl}pyridin-2-yl)piperazin-1-yl]ethan-1-one] gave a concentration for a half-maximal effect (EC50) in test [1] of 179 nM. The “Delta TM” value in test [2] was determined as 25.8 °C.

Take `Cc1cccc2c(-c3cccc4nn(C)c(F)c34)nn(-c3ccc(N4CCOC(CC(=O)O)C4)nc3)c12` (single isomer, unassigned) [Example 72-1]: in test [1], the concentration giving a half-maximal response (EC50) is 810 nM. For the same compound, the “Delta TM” value in test [2] came to 30.0 °C.

In turn, `CC(=O)N1CCN(c2ccc(-n3nc(-c4cccc5nn(C)c(F)c45)c4cccc(C)c43)cn2)CC1` [Example 8, 1-[4-(5-{3″-Fluoro-2″,7-dimethyl-1H,2″H-[3,4″-biindazol]-1-yl}pyridin-2-yl)piperazin-1-yl]ethan-1-one] displayed a 50% effective concentration (EC50) in test [1] of 168 nM. Moreover, in test [2], the “Delta TM” value stood at 32.5 °C.

Take `Cc1cccc2c(-c3cccc4nn(C)c(F)c34)nn(-c3ccc(N4CCN(C=O)CC4)nc3)c12` [Example 9, 4-(5-{3″-Fluoro-2″,7-dimethyl-1H,2″H-[3,4″-biindazol]-1-yl}pyridin-2-yl)piperazine-1-carbaldehyde]: the EC50 in test [1] came out at 192 nM. In addition, the “Delta TM” value in test [2] is 28.5 °C.

In test [1], `CC(=O)N1C[C@@H]2C[C@H]1CN2c1ccc(-n2nc(-c3cccc4nn(C)c(F)c34)c3cccc(C)c32)cn1` [Example 21, 1-[(1S,4S)-5-(5-{3″-fluoro-2″,7-dimethyl-1H,2″H-[3,4″-biindazol]-1-yl}pyridin-2-yl)-2,5-diazabicyclo[2.2.1]heptan-2-yl]ethan-1-one] yielded an EC50 of 1010 nM. In addition, the “Delta TM” value in test [2] came out at 24.9 °C.

On to `Cc1cccc2c(-c3c(F)cc(F)c4nn(C)cc34)nn(-c3ccc(N4C[C@@H]5[C@H](C4)[C@H]5C(=O)O)nc3)c12` [Example 7, (1R,5S,6S)-3-(5-{5″,7″-Difluoro-2″,7-dimethyl-1H,2″H-[3,4″-biindazol]-1-yl}pyridin-2-yl)-3-zabicyclo[3.1.0]hexane-6-carboxylic acid], for which the response in test [1] was half-maximal at 250 nM (EC50). For the same compound, in test [2], the “Delta TM” value turned out to be 35.5 °C.

In test [1], `CC(=O)N1CC2CCC1CN2c1ccc(-n2nc(-c3cccc4nn(C)c(F)c34)c3cccc(C)c32)cn1` (stereo not shown) [Example 23, 1-[5-(5-{3″-fluoro-2″,7-dimethyl-1H,2″H-[3,4″-biindazol]-1-yl}pyridin-2-yl)-2,5-diazabicyclo[2.2.2]octan-2-yl]ethan-1-one] gave an EC50 of 219 nM. In addition, in test [2], the “Delta TM” value turned out to be 29.6 °C.

`CC(=O)N1C[C@@H]2C[C@H]1CN2c1ccc(-n2nc(-c3c(F)ccc4nn(C)cc34)c3cccc(C)c32)cn1` [Example 30, 1-[(1S,4S)-5-(5-{5″-fluoro-2″,7-dimethyl-1H,2″H-[3,4″-biindazol]-1-yl}pyridin-2-yl)-2,5-diazabicyclo[2.2.1]heptan-2-yl]ethan-1-one] had a 50% effective concentration (EC50) in test [1] of 227 nM. In addition, the “Delta TM” value in test [2] amounted to 30.8 °C.

Compound `Cc1cc(F)cc2c(-c3c(F)cc(F)c4nn(C)cc34)nn(-c3ccc(N4CCC(C(=O)O)CC4)nc3)c12` [Example 67, 1-(5-{5,5″,7″-trifluoro-2″,7-dimethyl-1H,2″H-[3,4″-biindazol]-1-yl}pyridin-2-yl)piperidine-4-carboxylic acid] came in with an EC50 in test [1] of 102 nM. Also, the “Delta TM” value in test [2] is 37.0 °C.

In test [1], `Cc1cc(F)cc2c(-c3c(F)cc(F)c4nn(C)cc34)nn(-c3ccc(N4C[C@@H]5[C@H](C4)[C@H]5C(=O)O)nc3)c12` [Example 15, (1R,5S,6R)-3-(5-{5,5″,7″-Trifluoro-2″,7-dimethyl-1H,2″H-[3,4″-biindazol]-1-yl}pyridin-2-yl)-3-azabicyclo[3.1.0]hexane-6-carboxylic acid] yielded a half-maximal effective concentration (EC50) of 1170 nM. Besides, in test [2], the “Delta TM” value was determined as 36.8 °C.

Compound “2-[4-(5-{3″-fluoro-2″,7-dimethyl- 1H,2″H-[3,4″-biindazol]-1-yl}pyridin-2- yl)morpholin-2-yl]acetic acid [Example 18]” showed an EC50 in test [1] of 1070 nM. For the same compound, the “Delta TM” value in test [2] was determined as 28.8 °C.
